Measurements: patent publication EP3436024B1, “3-BETA-METHOXY-PREG FOR USE IN THE TREATMENT OF TREATMENT RESISTANT DEPRESSION” (Mapreg, priority 2016, dated 2017)

What was measured:
[1] = system: microtubule-associated protein2 (MAP2); assay: Binding (affinity) by displacement of PREG-3H; conditions: index of binding
[2] = biological target: purified tubulin and MAP2 (Homo sapiens, UniProt P11137); assay: Microtubule polymerization activity (optical density at 345 nm); format: biochemical; conditions: increase in optical density at 345 nm, 37 °C, in the presence of GTP
Procedure: Activity is measured by the increase in optical density at 345 nm of a mixture of purified tubulin and MAP2, incubated at 37 °C in the presence of GTP.

[3] = system: PC12 cells; assay: Stimulation of neuritic sprouting; format: cell-based; conditions: PC12 cells differentiated with NGF (10 ng/ml), steroid 30 µM, 3 days; relative to PREG
Procedure: Stimulation of neuritic sprouting is conducted on PC12 cells differentiated in the presence of NGF (10 ng/ml) and the steroid being tested (30 µM) for 3 days. For each condition, the average length of the longest 200 neurites […] is measured simultaneously for 3 cultures.

[4] = biological target: T1, human progesterone receptor(PR) (Homo sapiens, UniProt P06401); assay: Test of progesterone receptor agonist activity (MMTV-luciferase transactivation in transfected HEK293T cells); format: cell-based; conditions: 24 hours, increasing amounts, Figure 1
T1 construct: expressed in transfected cells; host or cells: HEK293T
T1 sequence (P06401 1-933): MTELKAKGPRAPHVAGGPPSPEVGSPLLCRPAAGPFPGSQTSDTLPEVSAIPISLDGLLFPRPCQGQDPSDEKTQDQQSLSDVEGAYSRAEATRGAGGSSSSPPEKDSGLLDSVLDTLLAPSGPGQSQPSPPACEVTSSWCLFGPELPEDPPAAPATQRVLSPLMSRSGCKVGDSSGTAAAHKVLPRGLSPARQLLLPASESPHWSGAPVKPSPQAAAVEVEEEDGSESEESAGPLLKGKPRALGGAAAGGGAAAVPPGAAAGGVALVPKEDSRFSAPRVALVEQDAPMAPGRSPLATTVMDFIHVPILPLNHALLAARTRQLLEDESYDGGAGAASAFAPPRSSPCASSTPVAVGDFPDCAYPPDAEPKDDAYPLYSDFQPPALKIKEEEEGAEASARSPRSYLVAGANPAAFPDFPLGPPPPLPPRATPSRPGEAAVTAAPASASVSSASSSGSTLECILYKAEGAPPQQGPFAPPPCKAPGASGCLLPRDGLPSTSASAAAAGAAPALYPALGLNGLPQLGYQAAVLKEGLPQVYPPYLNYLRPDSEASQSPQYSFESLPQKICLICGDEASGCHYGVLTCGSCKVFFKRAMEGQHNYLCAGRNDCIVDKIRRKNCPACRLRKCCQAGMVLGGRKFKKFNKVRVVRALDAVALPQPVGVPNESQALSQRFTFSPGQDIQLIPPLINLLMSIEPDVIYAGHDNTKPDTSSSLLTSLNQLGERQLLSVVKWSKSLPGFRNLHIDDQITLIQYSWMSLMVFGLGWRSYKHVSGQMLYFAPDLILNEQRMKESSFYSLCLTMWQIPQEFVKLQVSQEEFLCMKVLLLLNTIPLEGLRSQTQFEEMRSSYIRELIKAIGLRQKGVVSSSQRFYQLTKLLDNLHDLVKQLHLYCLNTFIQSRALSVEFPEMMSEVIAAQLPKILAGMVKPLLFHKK
Procedure: The main experimental setting used is the following: HEK293T cells were transiently transfected, using calcium phosphate precipitation technology, with expression vectors pSG5hPR (which permits expression of human progesterone receptor(PR)), pFC31-luc (contains the luciferase gene under the control of the MMTV promoter, which is in turn activated by binding of a progestin to progesterone receptor) and pcbetagal (which permits expression of betagalactosidase), and cultured during 24 hours with increasing amounts of various compositions: • 1. […] Test of progesterone receptor […] activity: transfected cells were cultured with progesterone (1 nM) and increasing amounts of RU486 (a well-known progesterone receptor antagonist) or 3-methoxy-pregnenolone. With this setting, a compound with progesterone receptor antagonist activity competes with progesterone for the occupation of progesterone receptor and results in a progressive loss of transactivation activity when the amount of this compound is increased compared to progesterone.

[5] = system: Wistar Kyoto (WKY) rats; assay: Locomotor activity in the open-field arena, WKY rats; format: in vivo, rat; conditions: acute, fluoxetine 10 mg/kg i.p., ketamine 30 mg/kg i.p., 3 min, Fig. 5A
Procedure: (§1) After a 6-day period of acclimatization, all experimental groups received daily successive subcutaneous (250 µl per rat) and intraperitoneal (1 ml/kg) injections. WI rats received injection of vehicle (sesame oil + saline) while WKY rats were randomly assigned to […], as follow: KWY rats receiving only vehicle (sesame oil + saline) and WKY rats treated with MAP4343 (10 mg/kg, s.c.; rats received in parallel i.p. injections of saline), fluoxetine (10 mg/kg i.p., rats received in parallel s.c. injections of sesame oil) or ketamine (30 mg/kg, i.p.; rats received in parallel s.c. injections of sesame oil) (see Figure 3).
(§2) After, a 6-day period of acclimatization, the acute phase of treatment started for 4 days during behavioral tests were performed (Figure 3). All animals were injected 1h30 before the starting of behavioral test.
(§3) The animals were individually placed in the open field arena (OFA) (70 x 100 x 70 cm), with a central square (35 x 50 cm), located in a 50 lux illuminated room and videotaped during 3 min using a computerized system (VideoTrack V2.5, ViewPoint, Lyon, France).
(§4) OFA allows firstly the evaluation of total locomotor activity (LMA) thereby measuring the total distance travelled in the arena (in cm). Secondly, measurements of the activity in the center of the arena like (i) the number of entries in the center of arena and (ii) the total time spent in the center of arena (in sec) provide cues of anxiety-like behavior (Prut and Belzung, 2003). All these behavioral parameters were instantaneously measured automatically with the VideoTrack V2.5 software from the videos.

[6] = system: Wistar Kyoto (WKY) rats; assay: Elevated-plus maze (EPM), WKY rats; format: in vivo, rat; conditions: acute, MAP4343 10 mg/kg s.c., fluoxetine 10 mg/kg, ketamine 30 mg/kg i.p., Fig. 5D
Procedure: as §1, §2
We used the elevated-plus maze (EPM) as an assay of anxiety-related behavior in rodents (Walf and Frye, 2007). Rats were initially placed in the center of the plus-maze, consisting of two open arms (50 x 10 cm) and two closed arms (50 x 10 cm enclosed by 40 cm walls), in a 50 lux illuminated room and videotaped during 5 min using a computerized system (VideoTrack V2.5, ViewPoint, Lyon, France). The time spent in the open versus closed arms was blindly measured by two independent experimenters from the recorded video, and the open arm-index was calculated as follow: time in the open arms (sec) / [time in open arms (sec) + time in closed arms (sec)].

[7] = system: Wistar Kyoto (WKY) rats; assay: Anxious-like behavior: activity in the central square of the open-field arena, WKY rats; format: in vivo, rat; conditions: acute, MAP4343 10 mg/kg s.c., fluoxetine 10 mg/kg i.p., ketamine 30 mg/kg i.p.
Procedure: as §1, §2, §3, §4

Sequence of purified tubulin and MAP2 (P11137 whole entry): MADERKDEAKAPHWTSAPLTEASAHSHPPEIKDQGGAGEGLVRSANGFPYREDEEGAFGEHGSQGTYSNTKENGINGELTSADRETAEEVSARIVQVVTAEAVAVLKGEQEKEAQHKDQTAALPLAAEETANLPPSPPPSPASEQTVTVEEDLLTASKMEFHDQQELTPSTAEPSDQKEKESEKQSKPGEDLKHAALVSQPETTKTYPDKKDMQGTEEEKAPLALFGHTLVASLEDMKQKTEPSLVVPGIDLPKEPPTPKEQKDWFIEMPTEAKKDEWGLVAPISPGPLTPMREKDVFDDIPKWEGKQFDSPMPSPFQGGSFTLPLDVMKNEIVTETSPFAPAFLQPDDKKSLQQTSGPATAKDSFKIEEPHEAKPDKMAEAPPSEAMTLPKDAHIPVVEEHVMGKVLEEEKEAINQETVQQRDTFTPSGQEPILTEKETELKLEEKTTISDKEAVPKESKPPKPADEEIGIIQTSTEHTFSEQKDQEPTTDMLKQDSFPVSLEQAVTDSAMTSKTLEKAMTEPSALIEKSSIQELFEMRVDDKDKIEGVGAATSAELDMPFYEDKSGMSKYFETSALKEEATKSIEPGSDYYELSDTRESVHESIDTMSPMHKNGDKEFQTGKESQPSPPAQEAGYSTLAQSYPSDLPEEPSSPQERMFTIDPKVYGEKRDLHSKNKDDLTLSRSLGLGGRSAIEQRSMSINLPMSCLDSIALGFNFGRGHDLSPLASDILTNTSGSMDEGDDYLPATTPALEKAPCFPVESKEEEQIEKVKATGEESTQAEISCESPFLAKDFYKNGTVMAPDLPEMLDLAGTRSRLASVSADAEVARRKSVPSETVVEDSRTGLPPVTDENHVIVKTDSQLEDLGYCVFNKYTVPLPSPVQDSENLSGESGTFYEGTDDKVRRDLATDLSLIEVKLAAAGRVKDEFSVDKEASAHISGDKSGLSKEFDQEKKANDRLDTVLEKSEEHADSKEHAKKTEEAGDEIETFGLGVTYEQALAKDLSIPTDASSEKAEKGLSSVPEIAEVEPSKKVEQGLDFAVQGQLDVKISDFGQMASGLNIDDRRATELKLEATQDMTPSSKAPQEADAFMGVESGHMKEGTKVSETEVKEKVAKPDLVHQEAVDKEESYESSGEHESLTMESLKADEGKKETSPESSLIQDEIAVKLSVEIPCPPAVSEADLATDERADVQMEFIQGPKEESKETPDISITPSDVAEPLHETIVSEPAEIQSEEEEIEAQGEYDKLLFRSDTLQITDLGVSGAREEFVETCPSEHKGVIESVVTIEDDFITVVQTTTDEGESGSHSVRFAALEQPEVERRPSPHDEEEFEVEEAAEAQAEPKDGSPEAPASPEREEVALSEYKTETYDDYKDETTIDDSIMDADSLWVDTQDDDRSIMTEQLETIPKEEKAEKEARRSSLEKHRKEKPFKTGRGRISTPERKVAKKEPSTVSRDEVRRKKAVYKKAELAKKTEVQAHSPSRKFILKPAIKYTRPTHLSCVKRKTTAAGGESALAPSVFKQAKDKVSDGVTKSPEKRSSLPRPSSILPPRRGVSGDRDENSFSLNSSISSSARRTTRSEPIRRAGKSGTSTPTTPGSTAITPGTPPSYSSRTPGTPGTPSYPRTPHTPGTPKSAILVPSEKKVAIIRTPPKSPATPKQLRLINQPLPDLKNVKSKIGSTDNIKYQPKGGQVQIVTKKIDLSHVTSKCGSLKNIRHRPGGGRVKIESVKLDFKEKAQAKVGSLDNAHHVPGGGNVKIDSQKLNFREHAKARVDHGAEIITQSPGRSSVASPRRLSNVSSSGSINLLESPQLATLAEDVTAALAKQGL

Row | Structure (SMILES) | Affinity [1] | Activity [2] | Neuritic sprouting [3] | also measured
1 | CC(=O)[C@@]12O[C@@H]1C[C@H]1[C@@H]3CC=C4C[C@@H](O)CC[C@]4(C)[C@H]3CC[C@@]12C [PREG-16a,17a-epoxy] | 41% of PREG | 54% of PREG | + (stimulation is lower than) | 
2 | CC(=O)[C@H]1[C@H](C)C[C@H]2[C@@H]3CC=C4C[C@@H](O)CC[C@]4(C)[C@H]3CC[C@@]21C [PREG-16a-methyl] | 80% of PREG | 70% of PREG | ++ (equal to) | 
3 | CC(=O)[C@H]1[C@H](C)C[C@H]2[C@@H]3CC[C@H]4C[C@@H](O)CC[C@]4(C)[C@H]3CC[C@@]21C [3β-hydroxy-5a-pregnane-20-one-16a-methyl] | 57% of PREG | 53% of PREG |  | 
4 | CC(=O)[C@H]1[C@@H](C)C[C@H]2[C@@H]3CC=C4C[C@@H](O)CC[C@]4(C)[C@H]3CC[C@@]21C [PREG-168-methyl] | 63% of PREG | 67% of PREG |  | 
5 | CC(=O)[C@H]1CC[C@H]2[C@@H]3CCC4=CC(=O)CC[C@]4(C)[C@H]3CC[C@]12C [progesterone, reference compound] |  |  |  | progesterone receptor agonist activity (transactivation activity leading to the expression of luciferase) [4]: permits a transactivation activity
6 | CO[C@H]1CC[C@@]2(C)[C@@H](CC[C@@H]3[C@@H]2CC[C@]2(C)[C@@H]([C@@H](C)O)CC[C@@H]32)C1 [3β-methoxy-5a-pregnane-20β-ol] | 65% of PREG | 65% of PREG | ++ (equal to) | 
7 | CC(=O)[C@H]1CC[C@H]2[C@@H]3CC=C4C[C@@H](O)CC[C@]4(C)[C@H]3CC[C@]12C [Pregnenolone (PREG), 3β-hydroxypregn-5α-en-20α-one, reference compound] | 100% of PREG | 100% of PREG | ++ (equal to) | 
8 | CO[C@H]1CC[C@@]2(C)[C@@H](CC[C@@H]3[C@@H]2CC[C@]2(C)[C@@H](C(C)=O)CC[C@@H]32)C1 (stereo in doubt) [3β-methoxy-5a-pregnane-20-one] | 87% of PREG | 10% of PREG | +++ | 
9 | CNC1(c2ccccc2Cl)CCCCC1=O (stereo not shown) [ketamine] |  |  |  | locomotor activity (total distance travelled in the open-field arena), change as compared to WKY receiving vehicle ([5]; MAP4343 10 mg/kg s.c.): no significant change; locomotor activity (total distance travelled in the open-field arena), change as compared to MAP4343-treated WKY [5]: no significant change; open-arm (OA) index, change when compared to WKY receiving vehicle alone [6]: -29%; number of entries in the central square of OFA, change as compared to WKY receiving only vehicle ([7]; Fig. 5B): failed to significantly modify; time spent in the center of open-field, change as compared to WKY receiving vehicle ([7]; Fig. 5C): did not induce any significant change
10 | CO[C@H]1CC[C@@]2(C)C(=CCC3C2CC[C@@]2(C)C3CC[C@@]2(C(C)=O)C(Cl)Cl)C1 (stereo partly drawn) [3β-methoxy-pregna-5-ene-20-one-17a-dichloromethyl] | 53% of PREG | 113% of PREG | +++ | 
11 | CC(=O)O[C@H](C)[C@H]1CC[C@H]2[C@@H]3CC=C4C[C@@H](O)CC[C@]4(C)[C@H]3CC[C@]12C [Pregna-5-ene-3β,20β-diol-20-acetate] | 60% of PREG | 108% of PREG | ++ (equal to) | 
12 | CC(=O)[C@@]12C[C@@H]1C[C@H]1[C@@H]3CC=C4C[C@@H](O)CC[C@]4(C)[C@H]3CC[C@@]12C [PREG-16a,17a-methylene] | 62% of PREG | 49% of PREG | + (stimulation is lower than) | 
13 | CO[C@H]1CC[C@@]2(C)C(=CC[C@H]3C4=CC[C@H](C(C)=O)[C@@]4(C)CC[C@@H]32)C1 [3β-methoxy-pregna-5,14-diene-20-one] | 102% of PREG | 50% of PREG | + (stimulation is lower than) | 
